Measured values published in patent US20030087753A1, “System for microbial control of a fluid” (priority 2001, published 2003).

Assays:
[1] = Adsorption and release of various antibiotics on ultra-stable zeolite Y (USY); type: physicochemical; details: for Amount antibiotic in 20 mg zeolite/ml: USY suspended to 20 mg/ml; for Release concentration of antibiotic: dried USY suspended to 20 mg/ml in buffer; for Amount adsorbed antibiotic/mg zeolite: ultra-stable zeolite Y (USY), amount calculated
Experimental: This example illustrates adsorption and release of various antibiotics. Ultra-stable zeolite Y (USY) was incubated with various antibiotics and the amounts absorbed to the zeolite were calculated. Then the zeolite was dried and suspended to 20 mg/ml in buffer and the concentrations of released antibiotics in the solutions were determined.

[2] = Release of cephalothin from ultra-stable zeolite Y (USY) at pH 2.5 and pH 8.0; type: physicochemical; details: 20 mg/ml USY; 10 mM phosphate buffer pH 8.0 after 10 mM glycin pH 2.5
Experimental: This example illustrates release of cephalothin from ultra-stable zeolite Y (USY) and is described with reference to the diagram in FIG. 10.
Ultra-stable zeolite Y (USY) was incubated with the antibiotic cephalothin 5 mg/ml after which the zeolite was sucked dry and further dried in warm closet. Zeolite with adsorbed cephalothin was suspended repeatedly to 20 mg/ml in 10 mM glycin pH 2.5 (▪) and the concentration of cephalothin in the solutions was determined by absorbency measurement at 260 nm. Then the zeolite was suspended in 10 mM phosphate buffer pH 8.0 (●).

[3] = test system: Staphylococcus aureus (ATCC 6538); experiment: Growth inhibition of Staphylococcus aureus by m-cresol adsorbed on zeolite USY (Eur. Pharm. efficacy of antimicrobial preservation); type: cell-based; details: 5 mg m-cresol/ml dissolved in water, positive control
Experimental: This example illustrates growth inhibition of Staphylococcus aureus (ATCC 6538), FU ml-1) after incubation with m-cresol adsorbed on zeolite. Test according to Eur. Pharm. nd Ed. VIII 14 (1992). Efficacy of antimicrobial preservation.
Ultra-stable zeolite Y (USY, 63-125 μm particles) was incubated with m-cresol […] after which the zeolite was sucked dry and further dried in warm closet overnight. Zeolite with adsorbed m-cresol was then suspended in PBS and was incubated with Staphylococcus aureus at 37° C. The concentration of m-cresol in the solution after the suspension of zeolite was 0.14 mg/ml.

| Compound | Amount antibiotic in 20 mg zeolite/ml [1] | Release concentration of antibiotic [1] | Amount adsorbed antibiotic/mg zeolite [1] | other results |
| --- | --- | --- | --- | --- |
| [H]/N=C(/N)N[C@H]1[C@H](O)[C@@H](O)[C@H](O[C@@H]2O[C@@H](C)[C@](O)(C=O)[C@H]2O[C@@H]2O[C@@H](CO)[C@H](O)[C@@H](O)[C@@H]2NC)[C@@H](N/C(N)=N\[H])[C@@H]1O [Streptomycin] | 9.6 mg/mL | 4800 µg/mL | 0.48 mg | – |
| Gentamycin | 3.6 mg/mL | – | 0.18 mg | – |
| CC(=O)OCC1=C(C(=O)O)N2C(=O)[C@@H](NC(=O)Cc3cccs3)[C@H]2SC1 [Cephalothin] | 4.2 mg/mL | 4.6 µg/mL | 0.21 mg | release of cephalothin from the zeolite on change of pH [2]: increased release |
| CN(C)[C@@H]1C(=O)C(C(N)=O)=C(O)[C@@]2(O)C(=O)C3=C(O)c4c(O)cccc4[C@@](C)(O)[C@H]3C[C@@H]12 [Tetracyclin] | 1.8 mg/mL | 220 µg/mL | 0.09 mg | – |
| O=C(N[C@H](CO)[C@H](O)c1ccc([N+](=O)[O-])cc1)C(Cl)Cl [Chloramphemicol] | 2.5 mg/mL | 7 µg/mL | 0.125 mg | – |
| CC1(C)S[C@@H]2[C@H](NC(=O)[C@H](N)c3ccccc3)C(=O)N2[C@H]1C(=O)O [Ampicilin] | 2.8 mg/mL | 400 µg/mL | 0.14 mg | – |
| Cc1cccc(O)c1 [Free m-cresol, m-cresol] | – | – | – | CFU/ml ([3]; incubation time 0 h): 5.9 × 10^6 CFU/ml; CFU/ml ([3]; incubation time 2 h): 1.2 × 10^2 CFU/ml; CFU/ml ([3]; incubation time 4 h): 24 CFU/ml; CFU/ml ([3]; incubation time 8 h): 3 CFU/ml; CFU/ml ([3]; incubation time 24 h): 0 CFU/ml; CFU/ml ([3]; incubation time 48 h): 0 CFU/ml |
